Test results from patent publication US20120064020A1, “NOVEL COMPOSITION” (priority 2009, published 2012).

Test system: IL-8
Assay: Expression of IL-8 by epidermal human skin model (EST-1000) after IL-1alpha stimulation
Assay type: cell-based
Conditions: Table 7, 2 wt.-% in vehicle
Experimental: The Expression of IL-8 by epidermal human skin model after IL-1alpha stimulation has been assessed using 3D-Reconstituted Epidermis Models (EST-1000) (Cellsystems GmbH, St. Katharinen, Germany). The EST-1000 samples were equilibrated over night at 37° C. in a 5% CO^2 atmosphere according to manufacturer's instructions. Then, the EST-1000 samples were stimulated by addition of 10 ng/ml IL-1alpha (Peprotech, UK) to the culture medium.
Afterwards, one sample was treated with the vehicle (i.e. squalane, e.g. commercially available under the tradename Fitoderm®), whereas the other sample was treated with a mixture consisting of the vehicle comprising 2 wt.-% of the mixture of example 1 by topical addition to the tissue samples. At distinct time points, 200 ul medium samples were taken and frozen for further analysis. As can be retrieved from the results presented in table, the expression of the pro-inflammatory cytokine IL-8 by the epidermal human skin model (EST-1000) is suppressed by the addition of the composition according to example 1 in a dose dependent manner.
Furthermore, the expression of IL-8 by epidermal human skin model after IL-1alpha stimulation was assessed as outlined above using the single compounds CLA, Syn Coll®, spent grain wax as well as mixtures thereof.

For Conjugated linoleic acid [CLA], the “Expression of cytokine IL-8, T = 24 h” value (T = 24 h) was 8161, the “Expression of cytokine IL-8, t = 0 h” value (t = 0 h) was 61 and the “Expression of cytokine IL-8, t = 2 h” value (t = 2 h) was 2536. For the same substance, the “Expression of cytokine IL-8, t = 4 h” value (t = 4 h) was 5056 and the “Expression of cytokine IL-8, t = 8 h” value (t = 8 h) was 5805.
